Marks after values point to notes of the source that are not given here.
Experiments:
[1] = system: LAPC-4 xenografts
Text: The xenograft experiment was approved by the Université Laval Animal Care Committee (Comité de Protection des Animaux de l’Université Laval, Québec, QC, Canada) and carried out in an animal facility approved by the Canadian Council on Animal Care (CCAC). Homozygous male Balb/c athymic nude mice (~42 days old, weighing approximately 28 g) were obtained from Charles River Inc. (Saint-Constant, QC, Canada) and housed (4 to 5) in vinyl micro-isolated ventilated cages equipped with air lids. Cages were kept in laminar airflow hoods and maintained in pathogen-limiting conditions. The animals were housed under a controlled environment at 22 ± 3 °C with 50 ± 20% relative humidity and light set at 12 h/day (light on at 07:15) during the acclimatization and study periods. Sterile water and rodent food (Rodent Diet #T.2018.15, Harlan Teklad, Madison, WI, USA) were provided ad libitum.
After an acclimatization period of 5 days, the mice were inoculated into both flanks by subcutaneous (SC) injection of 4 × 10^6 LAPC-4 cells (Passage 14) in 0.1 mL of growth medium containing 50% Matrigel (BD Biosciences, Mississauga, ON, Canada) via a 2.5-cm long 22-gauge needle. Two weeks later, mice that developed tumors were randomized according to tumor volume, divided into […] groups (Gr-1 to Gr-8), and treated over a period of 28 days. A bilateral orchiectomy was performed under isoflurane-induced anesthesia for Gr-1 but not for Gr-2 to Gr-8. Both Gr-1 (CTX control (CTL), 9 mice, 16 tumors) and Gr-2 (intact CTL, 9 mice, 18 tumors) were treated with 0.1 mL of the vehicle alone (8% DMSO/92% propylene glycol (PG) administered by gavage (PO). Gr-3 (30 mg/kg/PO, 10 mice, 19 tumors) received 0.843 mg of RM-581. Gr-4 (10 mg/kg/PO, 10 mice, 20 tumors) received 0.281 mg of RM-581. Gr-5 (3 mg/kg/PO, 10 mice, 18 tumors) received 0.084 mg of RM-581. Gr-6 (60 mg/kg/SC, 9 mice, 18 tumors) received 1.686 mg of abiraterone. Gr-7 (60 mg/kg/PO, 9 mice, 17 tumors) received 1.686 mg of abiraterone acetate. Gr-8 (4 mg/kg/IP, 9 mice, 17 tumors) received 0.112 mg of docetaxel.
RM-581 and abiraterone acetate were administered six days a week PO; abiraterone was administered six days a week SC; and docetaxel was administered twice a week by intraperitoneal (IP) injection. RM-581 was first dissolved in DMSO, and thereafter we added PG to obtain the appropriate concentration in the vehicle fluid (8% DMSO/92% PG). Abiraterone acetate and abiraterone were dissolved in 0.3% hydroxypropyl cellulose in saline (0.9% NaCl), while docetaxel was first dissolved in DMSO, and thereafter we added phosphate-buffered saline (PBS) to obtain the proper concentration in the carrier fluid (0.5% DMSO/99.5% PBS). All solutions were prepared one day prior to the initiation of treatment and stored at 4 °C under constant agitation.
The mice were weighed at the start and end of the protocol. Tumor area (mm^2) was calculated twice a week using two perpendicular diameters (L and W), which were recorded using a caliper, and the formula L/2 × W/2 × π. The area measured on the first day of treatment was fixed at 100%. At the end of the studies and 3 h after the last treatment, the mice were terminally anesthetized, and their final body weights were measured. Tumors, liver, kidney, and total prostate were collected from mice during necropsy, while blood was collected by cardiac puncture. Tissues and plasma were immediately frozen at −80 °C until analysis.

[2] = system: androgen-dependent and androgen-independent PC cell lines; conditions: cited from earlier work
[3] = system: LAPC-4 cells; test: LAPC-4 cell viability proliferation and combination index assays (MTS, 6 days); type: cell-based, human; conditions: LAPC-4, six days
Procedure: LAPC-4 cells (1 × 10^4 cells/well) were seeded in triplicate in 96-well plates in IMDM (Iscove’s modified Dulbecco’s medium) (90 μL) supplemented (v/v) with 5% fetal FBS, 1% L-glutamine, 1% insulin, and 1% penicillin/streptomycin. The cells were incubated at 37 °C in a 5% CO2 humidified atmosphere for 24 h. […] After 6 days of incubation, the cell proliferation was determined by adding 10 µL of MTS followed by incubation at 37 °C for 4 h. Plates were then analyzed at 490 nm using a Tecan M-200 microplate reader (Männedorf, Switzerland). Using GraphPad Prism 7 software, the IC50 values were calculated. The values represent the average of two independent experiments performed in triplicate. According to the Chou–Talalay method and using the following formula, the CI (combination) was calculated. CI=(D)1/(DX)1+(D)2/(DX)2
Denominators (DX)l and (DX)2 are the doses of individual drugs required to achieve a given effect level, and numerators (D)1 and (D)2 are the concentrations of each drug present in combination to trigger the same effect level. When the drugs interact additively, CI = 1, but a CI < 1 indicates a synergistic interaction, and a CI > 1 indicates an antagonistic effect.

[4] = system: PC-3 xenograft; set-up: method as in PMID 34681843; conditions: PC-3 xenograft, 4 mg/kg IP; cited from earlier work
[5] = system: LAPC-4 cells; test: Gene expression study by qPCR; type: cell-based, human; conditions: RM-581 5 µM or atorvastatin 10 µM, CTL fixed at 1.0
Procedure: LAPC-4 cells (3 × 10^5) were treated with RM-581 (1, 2, and 5 µM) at different times (6, 18, 24, and 36 h) and the expression of various genes was determined as previously reported. Primer sequences used for the analysis of each gene are reported in Table S3 (Supplementary Materials).

[6] = system: LAPC-4 cells; test: Total cholesterol in LAPC-4 cells (kit); type: cell-based, human; conditions: 18, 36, or 72 h; RM-581 2 μM or atorvastatin 10 μM
Procedure: A cholesterol quantification kit provided by Sigma-Aldrich (Catalog Number MAK043) was used following the manufacturer’s instructions to determine the concentration of total cholesterol, free cholesterol, and cholesteryl ester in samples. The cholesterol contents were measured in samples from two different protocols. […] Secondly, in tumor, liver, and plasma obtained at the end of the LAPC-4 xenograft experiment (control group and the group treated with RM-581 at 10 mg/kg/PO).

[7] = system: PC-3 (AR−) cells; set-up: method as in earlier work; conditions: ref 52 Furuya et al.; cited from earlier work
[8] = system: LNCaP (AR+) cells; set-up: method as in earlier work; conditions: ref 52 Furuya et al.; cited from earlier work

Compound: CC(=O)O[C@H]1CC[C@@]2(C)C(=CC[C@@H]3[C@@H]2CC[C@]2(C)C(c4cccnc4)=CC[C@@H]32)C1 [abiraterone acetate, reference compound]
- effect on tumor compared to intact group ([1]; 60 mg/kg PO, day 28): no longer significant
- IC50 [2]: > 10 µM

Compound: CC(=O)O[C@@]12CO[C@@H]1C[C@H](O)[C@@]1(C)C(=O)[C@H](O)C3=C(C)[C@@H](OC(=O)[C@H](O)[C@@H](NC(=O)OC(C)(C)C)c4ccccc4)C[C@@](O)([C@@H](OC(=O)c4ccccc4)[C@H]21)C3(C)C [docetaxel, reference compound]
- cell growth plateau ([3]; between 0.01 and 10 µM): around 25%
- effect on tumor growth ([1]; 4 mg/kg IP twice a week): no significant effect
- block of tumor growth [4]: 35%

Compound: C[C@]12CC[C@H](O)CC1=CC[C@@H]1[C@@H]2CC[C@]2(C)C(c3cccnc3)=CC[C@@H]12 [abiraterone, reference compound]
- IC50 ([3]; Homo sapiens, LAPC4, 144 h, single drugs and 1:1 combinations, read-out: IC50 (Figure 2B)): 11.5 µM
- day of significantly different effect vs intact control ([1]; 60 mg/kg SC): 18 days
- tumor reduction compared to intact control group ([1]; 60 mg/kg SC, 6 days a week, day 28): 40%

Compound: CC(C)c1c(C(=O)Nc2ccccc2)c(-c2ccccc2)c(-c2ccc(F)cc2)n1CC[C@@H](O)C[C@@H](O)CC(=O)O [atorvastatin, reference compound]
- ACAT1 mRNA expression ([5]; 6 h): 1.0
- ACLY mRNA expression ([5]; 6 h): 1.0
- FASN mRNA expression ([5]; 6 h): 1.2
- HMGCR mRNA expression ([5]; 6 h): 1.4 *
- HMGCS1 mRNA expression ([5]; 6 h): 1.3
- LDLR mRNA expression ([5]; 6 h): 1.0
- MVD mRNA expression ([5]; 6 h): 1.6 *
- MVK mRNA expression ([5]; 6 h): 1.5
- SCD1 mRNA expression ([5]; 6 h): 1.4
- ACAT1 mRNA expression ([5]; 18 h): 1.0
- ACLY mRNA expression ([5]; 18 h): 1.2
- FASN mRNA expression ([5]; 18 h): 1.3
- HMGCR mRNA expression ([5]; 18 h): 1.8 *
- HMGCS1 mRNA expression ([5]; 18 h): 3.5 *
- LDLR mRNA expression ([5]; 18 h): 1.8 *
- MVD mRNA expression ([5]; 18 h): 2.6 *
- MVK mRNA expression ([5]; 18 h): 2.0 *
- SCD1 mRNA expression ([5]; 18 h): 1.6 *
- ACAT1 mRNA expression ([5]; 24 h): 1.0
- ACLY mRNA expression ([5]; 24 h): 1.9 *
- FASN mRNA expression ([5]; 24 h): 1.7 *
- HMGCR mRNA expression ([5]; 24 h): 2.6 *
- HMGCS1 mRNA expression ([5]; 24 h): 2.7 *
- LDLR mRNA expression ([5]; 24 h): 1.8 *
- MVD mRNA expression ([5]; 24 h): 3.5 *
- MVK mRNA expression ([5]; 24 h): 2.5 *
- SCD1 mRNA expression ([5]; 24 h): 2.6 *
- ACAT1 mRNA expression ([5]; 36 h): 1.1
- ACLY mRNA expression ([5]; 36 h): 2.2 *
- FASN mRNA expression ([5]; 36 h): 1.8 *
- HMGCR mRNA expression ([5]; 36 h): 3.5 *
- HMGCS1 mRNA expression ([5]; 36 h): 2.0 *
- LDLR mRNA expression ([5]; 36 h): 2.5 *
- MVD mRNA expression ([5]; 36 h): 4.0 *
- MVK mRNA expression ([5]; 36 h): 2.5 *
- SCD1 mRNA expression ([5]; 36 h): 4.5 *
- Total cholesterol in LAPC-4 cells vs untreated cells [6]: did not show a significant difference

Compound: CCC(C)(C)C(=O)O[C@H]1C[C@@H](C)C=C2C=C[C@H](C)[C@H](CC[C@@H]3C[C@@H](O)CC(=O)O3)[C@H]21 [simvastatin]
- LDLR expression [7]: decreased
- intracellular cholesterol ratio [7]: decreased
- LDLR expression [8]: increased
- intracellular cholesterol ratio [8]: without affecting
